Laboratory results reported in ChEMBL document CHEMBL1157533 (J Med Chem, 2008).

What was measured:
[1] = target: Beta-3 adrenergic receptor (Homo sapiens, UniProt P13945); experiment: Agonist activity at human recombinant beta3 adrenergic receptor expressed in CHO cells assessed as cAMP accumulation by enzyme immuno assay; format: functional, cell-based
[2] = target: Beta-1 adrenergic receptor (Homo sapiens, UniProt P08588); experiment: Agonist activity at human recombinant beta-1 adrenergic receptor expressed in CHO cells assessed as cAMP accumulation by enzyme immuno assay; format: functional, cell-based
[3] = Metabolic stability assessed as intrinsic clearance in dog liver microsome in presence of NADPH-generating system; format: ADME, Canis lupus familiaris; conditions: liver microsomes
[4] = species: Canis familiaris; experiment: cells; conditions: Canis lupus familiaris, 3 h
Description: Inhibition of carbachol-induced increase in intravesical pressure in intraduodenally dosed Beagle dog OAB model for 180 mins

[5] = Total clearance in rat at 1.0 mg/kg, iv; format: ADME, organism-based; set-up: dose 1 mg/kg, route intravenous; conditions: in vivo
[6] = AUC (0 to 24 hrs) in monkey at 0.32 mg/kg, po by cassette assay; format: ADME, organism-based, Macaca mulatta; set-up: time < 24 hr, dose 0.32 mg/kg, route oral; conditions: rhesus monkey, plasma
[7] = Metabolic stability assessed as intrinsic clearance in rat liver microsome in presence of NADPH-generating system; format: ADME; conditions: liver microsomes
[8] = Metabolic stability assessed as intrinsic clearance in human liver microsome in presence of NADPH-generating system; format: ADME; conditions: liver microsomes
[9] = Bioavailability in monkey at 0.32 mg/kg, po by cassette assay; format: ADME, organism-based, Macaca mulatta; conditions: rhesus monkey, in vivo
[10] = Terminal half life in rat plasma at 1.0 mg/kg, iv; format: ADME, organism-based; set-up: dose 1 mg/kg, route intravenous; conditions: read-out: beta t1/2 (converted)
[11] = Cmax in dog at 0.32 mg/kg, po; format: ADME, organism-based, Canis lupus familiaris; set-up: dose 0.32 mg/kg, route oral; conditions: in vivo
[12] = AUC (0 to 24 hrs) in rat at 1.0 mg/kg, po; format: ADME, organism-based; set-up: time < 24 hr, dose 1 mg/kg, route oral; conditions: plasma
[13] = Bioavailability in dog at 0.32 mg/kg, po; format: ADME, organism-based, Canis lupus familiaris; conditions: in vivo
[14] = Cmax in rat at 1.0 mg/kg, po; format: ADME, organism-based; set-up: dose 1 mg/kg, route oral; conditions: in vivo
[15] = Metabolic stability assessed as intrinsic clearance in monkey liver microsome in presence of NADPH-generating system; format: ADME, Macaca mulatta; conditions: rhesus monkey, liver microsomes
[16] = Protein binding in Beagle dog serum; format: ADME, cell-free, Canis lupus familiaris; conditions: read-out: PPB (converted)
[17] = Total clearance in monkey at 0.32 mg/kg, iv by cassette assay; format: ADME, organism-based, Macaca mulatta; set-up: dose 0.32 mg/kg, route intravenous; conditions: rhesus monkey, in vivo
[18] = AUC (0 to 24 hrs) in dog at 0.32 mg/kg, po; format: ADME, organism-based, Canis lupus familiaris; set-up: time < 24 hr, dose 0.32 mg/kg, route oral; conditions: plasma
[19] = Terminal half life in monkey plasma at 0.32 mg/kg, iv by cassette assay; format: ADME, organism-based, Macaca mulatta; set-up: dose 0.32 mg/kg, route intravenous; conditions: rhesus monkey, read-out: beta t1/2 (converted)
[20] = Total clearance in dog at 0.32 mg/kg, iv; format: ADME, organism-based, Canis lupus familiaris; set-up: dose 0.32 mg/kg, route intravenous; conditions: in vivo
[21] = target: Beta-3 adrenergic receptor (Canis lupus familiaris, UniProt O02662); experiment: Agonist activity at dog recombinant beta3 adrenergic receptor expressed in CHO cells assessed as cAMP accumulation by enzyme immuno assay; format: functional, cell-based
[22] = target: Beta-2 adrenergic receptor (Homo sapiens, UniProt P07550); experiment: Agonist activity at human recombinant beta2 adrenergic receptor expressed in CHO cells assessed as cAMP accumulation by enzyme immuno assay; format: functional, cell-based
[23] = Terminal half life in dog plasma at 0.32 mg/kg, iv; format: ADME, organism-based, Canis lupus familiaris; set-up: dose 0.32 mg/kg, route intravenous; conditions: read-out: beta t1/2 (converted)
[24] = Bioavailability in rat at 1.0 mg/kg, po; format: ADME, organism-based; conditions: in vivo
[25] = Terminal half life in Beagle dog at 0.1 mg/kg, iv by cassette assay; format: ADME, organism-based, Canis lupus familiaris; set-up: dose 0.1 mg/kg, route intravenous; conditions: in vivo, read-out: beta t1/2 (converted)
[26] = Volume of distribution at steady state in Beagle dog at 0.1 mg/kg, iv by cassette assay; format: ADME, organism-based, Canis lupus familiaris; set-up: dose 0.1 mg/kg, route intravenous; conditions: in vivo, read-out: Vdss
[27] = AUC (0 to 24 hrs) in Beagle dog at 0.1 mg/kg, iv by cassette assay; format: ADME, organism-based, Canis lupus familiaris; set-up: time < 24 hr, dose 0.1 mg/kg, route intravenous; conditions: plasma
[28] = Total clearance in Beagle dog at 0.1 mg/kg, iv by cassette assay; format: ADME, organism-based, Canis lupus familiaris; set-up: dose 0.1 mg/kg, route intravenous; conditions: in vivo
[29] = Bioavailability in Beagle dog at 0.1 mg/kg, po by cassette assay; format: ADME, organism-based, Canis lupus familiaris; conditions: in vivo
[30] = AUC (0 to 2 hrs) in Beagle dog at 0.1 mg/kg, po by cassette assay; format: ADME, organism-based, Canis lupus familiaris; set-up: time < 2 hr, dose 0.1 mg/kg, route oral; conditions: plasma
[31] = Cmax in dog at 0.1 mg/kg, po; format: ADME, organism-based, Canis lupus familiaris; set-up: dose 0.1 mg/kg, route oral; conditions: in vivo
[32] = Total clearance in dog at 0.1 mg/kg, iv; format: ADME, organism-based, Canis lupus familiaris; set-up: dose 0.1 mg/kg, route intravenous; conditions: in vivo
[33] = Bioavailability in dog at 0.1 mg/kg, po; format: ADME, organism-based, Canis lupus familiaris; conditions: in vivo
[34] = Terminal half life in dog at 0.1 mg/kg, iv; format: ADME, organism-based, Canis lupus familiaris; set-up: dose 0.1 mg/kg, route intravenous; conditions: in vivo, read-out: beta t1/2 (converted)
[35] = AUC (0 to 24 hrs) in dog at 0.1 mg/kg, po; format: ADME, organism-based, Canis lupus familiaris; set-up: time < 24 hr, dose 0.1 mg/kg, route oral; conditions: plasma

Sequence of Beta-2 adrenergic receptor (P07550 whole entry): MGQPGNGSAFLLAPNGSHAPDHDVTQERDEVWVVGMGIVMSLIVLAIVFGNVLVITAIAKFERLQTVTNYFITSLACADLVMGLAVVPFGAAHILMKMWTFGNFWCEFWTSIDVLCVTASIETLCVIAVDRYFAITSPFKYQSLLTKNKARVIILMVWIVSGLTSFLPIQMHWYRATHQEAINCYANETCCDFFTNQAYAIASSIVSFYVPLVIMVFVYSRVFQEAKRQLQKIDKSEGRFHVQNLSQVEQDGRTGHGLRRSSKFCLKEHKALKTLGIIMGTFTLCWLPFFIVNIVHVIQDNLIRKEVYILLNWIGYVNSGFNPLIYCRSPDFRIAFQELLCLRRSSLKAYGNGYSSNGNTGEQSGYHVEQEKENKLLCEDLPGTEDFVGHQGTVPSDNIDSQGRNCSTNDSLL
Sequence of Beta-3 adrenergic receptor (Homo sapiens, UniProt P13945) (P13945 whole entry): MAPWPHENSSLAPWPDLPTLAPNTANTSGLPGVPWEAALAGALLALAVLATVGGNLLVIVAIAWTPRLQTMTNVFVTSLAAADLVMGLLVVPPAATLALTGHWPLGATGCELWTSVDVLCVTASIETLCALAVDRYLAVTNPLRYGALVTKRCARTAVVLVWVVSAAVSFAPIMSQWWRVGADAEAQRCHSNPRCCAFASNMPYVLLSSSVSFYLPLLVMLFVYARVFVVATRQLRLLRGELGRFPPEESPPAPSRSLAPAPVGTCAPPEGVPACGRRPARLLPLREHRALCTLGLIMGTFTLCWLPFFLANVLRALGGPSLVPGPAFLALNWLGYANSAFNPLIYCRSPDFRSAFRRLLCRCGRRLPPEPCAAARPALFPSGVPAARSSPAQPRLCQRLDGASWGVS
Sequence of Beta-1 adrenergic receptor (P08588 whole entry): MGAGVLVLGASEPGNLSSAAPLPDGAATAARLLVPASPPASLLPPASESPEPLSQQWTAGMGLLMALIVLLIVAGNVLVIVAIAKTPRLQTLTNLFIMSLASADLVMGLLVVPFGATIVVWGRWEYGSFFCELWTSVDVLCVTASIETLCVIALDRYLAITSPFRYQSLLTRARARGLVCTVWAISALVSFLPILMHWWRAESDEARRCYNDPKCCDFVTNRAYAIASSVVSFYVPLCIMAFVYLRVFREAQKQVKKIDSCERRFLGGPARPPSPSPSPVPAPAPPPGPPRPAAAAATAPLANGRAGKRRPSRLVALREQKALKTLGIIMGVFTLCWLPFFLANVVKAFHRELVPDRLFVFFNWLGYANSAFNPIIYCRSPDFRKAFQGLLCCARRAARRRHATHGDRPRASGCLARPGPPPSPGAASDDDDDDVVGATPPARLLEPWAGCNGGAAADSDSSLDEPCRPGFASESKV
Sequence of Beta-3 adrenergic receptor (Canis lupus familiaris, UniProt O02662) (O02662 whole entry): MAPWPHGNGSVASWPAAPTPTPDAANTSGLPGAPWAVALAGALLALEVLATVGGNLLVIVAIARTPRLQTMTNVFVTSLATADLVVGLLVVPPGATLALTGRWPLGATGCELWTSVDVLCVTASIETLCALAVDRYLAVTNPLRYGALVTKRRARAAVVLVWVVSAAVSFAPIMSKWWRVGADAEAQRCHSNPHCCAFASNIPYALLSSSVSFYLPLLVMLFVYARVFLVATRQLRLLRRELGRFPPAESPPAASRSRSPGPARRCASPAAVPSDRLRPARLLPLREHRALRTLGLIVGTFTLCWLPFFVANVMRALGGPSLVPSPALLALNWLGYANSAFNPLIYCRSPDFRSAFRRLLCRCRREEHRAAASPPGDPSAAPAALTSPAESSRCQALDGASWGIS

O=C(O)c1ccc(-c2ccc(OCCNC[C@H](O)c3cccc(Cl)c3)cc2)cc1OC1CCCCC1
EC50 [1]: 0.27 nM
EC50 [2]: 52 nM

CC(C)Oc1cc(-c2ccc(CCNC[C@H](O)c3cccc(N)c3)cc2)ccc1C(=O)O
EC50 [1]: 8.1 nM
EC50 [2]: > 1000 nM

CC(C)Oc1cc(-c2ccc(CCNC[C@H](O)c3ccc(N)cc3)cc2)ccc1C(=O)O
EC50 [1]: 2.6 nM
EC50 [2]: > 1000 nM

CC(C)Oc1cc(-c2ccc(CCNC[C@H](O)c3cccc(NS(C)(=O)=O)c3)cc2)ccc1C(=O)O
EC50 [1]: 30 nM
EC50 [2]: > 1000 nM

CC(C)Oc1cc(-c2ccc(C[C@@H](C)NC[C@H](O)c3cccc(Cl)c3)cc2)ccc1C(=O)O
EC50 [1]: 0.19 nM
EC50 [2]: 37 nM

CC(C)Cc1cc(-c2ccc(CCNC[C@H](O)c3ccc(N)nc3)cc2)ccc1C(=O)O
CLint scaled [3]: < 2 mL/min/kg
EC50 [4]: 1.8 nM
ED50 [4]: 0.0161 mg/kg
clearance [5]: 8.5 mL/min/kg
AUC(0-t) at 24 h [6]: 90.8 ng·h/mL
CLint scaled [7]: < 2 mL/min/kg
CLint scaled [8]: 2.2 mL/min/kg
EC50 [1]: 0.066 nM
bioavailability [9]: 48.6%
half-life [10]: 1.9 h
Cmax [11]: 49.1 ng/mL
AUC(0-t) at 24 h [12]: 208 ng·h/mL
bioavailability [13]: 27%
Cmax [14]: 21.9 ng/mL
CLint scaled [15]: 3.8 mL/min/kg
fraction unbound [16]: 0.2
clearance [17]: 24.3 mL/min/kg
AUC(0-t) at 24 h [18]: 177 ng·h/mL
half-life [19]: 5.9 h
EC50 [2]: 150 nM
clearance [20]: 7.9 mL/min/kg
EC50 [21]: 3.2 nM
EC50 [22]: 3200 nM
half-life [23]: 7.6 h
bioavailability [24]: 12.4%

CCOc1cc(-c2ccc(C[C@@H](C)NC[C@H](O)c3ccccc3)cc2)ccc1C(=O)O
half-life [25]: 9.9 h
EC50 [1]: 0.31 nM
Vd [26]: 1.9 L/kg
AUC(0-t) at 24 h [27]: 477 ng·h/mL
clearance [28]: 3.5 mL/min/kg
bioavailability [29]: 73%
AUC(0-t) at 2 h [30]: 350 ng·h/mL
EC50 [2]: 62 nM

CC(C)Oc1cc(-c2ccc(CCNC[C@H](O)c3ccc(N)nc3)cc2)ccc1C(=O)O
EC50 [1]: 0.19 nM
EC50 [2]: 130 nM
EC50 [22]: > 10000 nM

C[C@H](Cc1ccc(-c2ccc(C(=O)O)cc2)cc1)NC[C@H](O)c1cccc(Cl)c1
EC50 [1]: 0.18 nM
EC50 [2]: 13 nM

C[C@@H](Cc1ccc(-c2ccc(C(=O)O)cc2)cc1)NC[C@H](O)c1cccc(Cl)c1
EC50 [1]: 6 nM
EC50 [2]: 12 nM

C[C@H](Cc1ccc(-c2ccc(C(=O)O)cc2)cc1)NC[C@H](O)c1ccccc1
EC50 [1]: 0.3 nM
EC50 [2]: 22 nM
EC50 [22]: > 1000 nM

C[C@H](Cc1ccc(-c2ccc(C(=O)O)c(OC3CCCCC3)c2)cc1)NC[C@H](O)c1ccccc1
CLint scaled [3]: < 0.1 mL/min/kg
half-life [25]: 0.35 h
EC50 [1]: 0.042 nM
Vd [26]: 1.13 L/kg
AUC(0-t) at 24 h [27]: 24.3 ng·h/mL
clearance [28]: 68.9 mL/min/kg
bioavailability [29]: 0%
EC50 [2]: 28 nM

CC(C)Oc1cc(-c2ccc(CCN[C@@H](C)[C@H](O)c3ccc(O)cc3)cc2)ccc1C(=O)O
EC50 [1]: 0.14 nM
EC50 [2]: 500 nM

C[C@H](Cc1ccc(-c2ccc(C(=O)O)cc2)cc1)NC[C@H](O)c1cccnc1
clearance [5]: 34.3 mL/min/kg
EC50 [1]: 0.49 nM
Cmax [31]: 30.5 ng/mL
half-life [10]: 1.91 h
AUC(0-t) at 24 h [12]: 103 ng·h/mL
Cmax [14]: 22 ng/mL
clearance [32]: 4.4 mL/min/kg
EC50 [2]: 75 nM
bioavailability [33]: 59.7%
EC50 [22]: > 1000 nM
half-life [34]: 6.4 h
bioavailability [24]: 25.2%
AUC(0-t) at 24 h [35]: 207 ng·h/mL

CC(C)Oc1cc(-c2ccc(CCNC[C@H](O)c3ccc(O)c(NS(C)(=O)=O)c3)cc2)ccc1C(=O)O
EC50 [1]: 0.26 nM
EC50 [2]: 150 nM

CC(C)Oc1cc(-c2ccc(OCCNC[C@H](O)c3ccccc3)cc2)ccc1C(=O)O
EC50 [1]: 2.4 nM
EC50 [2]: 510 nM

CC(C)Oc1cc(-c2ccc(CCNC[C@H](O)c3cccc(F)c3)cc2)ccc1C(=O)O
EC50 [1]: 2.1 nM
EC50 [2]: 320 nM

CC(C)Oc1cc(-c2ccc(CCNC[C@H](O)c3cccc(O)c3)cc2)ccc1C(=O)O
EC50 [1]: 0.062 nM
EC50 [2]: 440 nM

COc1cc(-c2ccc(C[C@@H](C)NC[C@H](O)c3ccccc3)cc2)ccc1C(=O)O
EC50 [1]: 0.79 nM
EC50 [2]: 83 nM

CC(C)Cc1cc(-c2ccc(CCNC[C@H](O)c3cccnc3)cc2)ccc1C(=O)O
EC50 [1]: 0.26 nM
EC50 [2]: > 1000 nM

Nc1ccc([C@@H](O)CNCCc2ccc(-c3ccc(C(=O)O)c(OC4CCCCC4)c3)cc2)cn1
EC50 [1]: 0.035 nM
EC50 [2]: 39 nM
EC50 [22]: 1100 nM

CCOC(=O)COc1ccc2c(c1)C[C@@H](NC[C@H](O)c1cccc(Cl)c1)CCC2
fraction unbound [16]: 0.06
